Reference: patent US20230083012A1, “DIHYDROPYRIMIDINE DERIVATIVES AND USES THEREOF IN THE TREATMENT OF HBV INFECTION OR OF HBV-INDUCED DISEASES” (priority 2019, published 2023)
Like-named read-outs stand apart in the source and are kept apart here.

Tests used:
HBV = assay: Anti-HBV activity in HepG2.2.15 cells (HBV DNA in culture medium by qPCR); assay type: cell-based; conditions: Hepatitis B virus, HepG2.2.15, 144 h
Method: Example 2: Anti-Viral Assay in HepG2.2.15 Cells
(§1) HepG2.2.15 (the HepG2.2.15 cell line can be produced by transfection of the HepG2 cell line as described in Sells, Chen, and Acs 1987 (Proc. Natl. Acad. Sci. USA 84: 1005-1009), and the HepG2 cell line is available from ATCC® under number HIB-8065™)
(§2) HepG2.2.15 cells were plated into 96-well plate in 2% FBS culture medium at the density of 40,000 cells/well and 5,000 cells/well for HBV inhibitory activity and cytotoxicity determination, respectively. After incubation at 37° C., 5% CO2 overnight, cells were treated with medium containing compounds for 6 days with medium and compounds refreshed after 3 days of treatment. Each compound was tested in a 1:3 serial dilutions at 8 different concentrations in triplicate. The highest concentration of the compounds was 10 uM or 1 uM for anti-HBV activity assay and 100 uM for cytotoxicity determination.
The change of HBV DNA level induced by the compounds was assessed by quantitative real-time polymerase chain reaction (qPCR). Briefly, the HBV DNA in the culture medium was extracted using QIAamp 96 DNA Blood Kit according to the manual and then quantified by real-time PCR assay using the primers and probe in the table 2 below.
(§3) 2) DATA Analysis EC50 and CC50 values are calculated by the GRAPTIPAD PRISM software.

[1] = Cytotoxicity determination in HepG2.2.15 cells (CCK-8 cell viability); assay type: cell-based; conditions: human, 6 days treatment, CCK-8 assay, highest concentration 100 uM
Method: as §1, §2
Cell viability was determined by CCK-8 assay. After 6 days of compounds treatment, 20 μl CCK-8 reagents were added to each well of cytotoxicity assay plates. Cell plates were incubated at 37° C., 5% CO2 for 2.5 h. The absorbance at 450 nm wavelength and the absorbance at 630 nm wavelength as reference was measured.
as §3

[2] = HepG2.2.15 cells, 6 days treatment, HBV DNA in culture medium quantified by real-time PCR, read-out: EC50

Compound `CCOC(=O)C1=C(CN2CC(F)(F)[C@H]3[C@@H]2CCN3CCOC(C)C(=O)O)NC(c2nccs2)=N[C@H]1c1cccc(F)c1C` (single isomer, unassigned) [Compound 148] has an EC50 (HBV; [2]) of 0.0073 µM and a CC50 at 6 days [1] of 34.1 µM.

Work on `COC(=O)C1=C(CN2CC(F)(F)[C@H]3[C@@H]2CN(C(C)=O)N3CCC(C)(C)C(=O)O)NC(c2nccs2)=N[C@H]1c1ccc(F)c(F)c1C` (single isomer, unassigned) [Compound 82B, 4-((cis)-2-acetyl-4-((6-(3,4-difluoro-2-methylphenyl)-5-(methoxycarbonyl)-2-(thiazol-2-yl)-3,6-dihydropyrimidin-4-yl)methyl)-6,6-difluorohexahydropyrrolo[3,2-c]pyrazol-1(2H)-yl)-2,2-dimethylbutanoic acid] yielded an EC50 (HBV; [2]) of 0.037 µM and a CC50 at 6 days [1] of 46.9 µM.

Compound `CCOC(=O)C1=C(CN2CC(F)(F)[C@H]3CN([C@H](C)C(=O)O)C[C@H]32)NC(c2nccs2)=N[C@H]1c1cccc(F)c1C` (single isomer, unassigned) [Compound 14E] has an EC50 (HBV; [2]) of 0.0623 µM and a CC50 at 6 days [1] of 85.3 µM.

For `COC(=O)C1=C(CN2CC(F)(F)[C@@H]3CN(C(=O)C(C)(C)C(=O)O)C[C@@H]32)NC(c2nccs2)=N[C@H]1c1cccc(F)c1Cl` (single isomer, unassigned) [Compound 206, 3-((cis)-1-((6-(2-chloro-3-fluorophenyl)-5-(methoxycarbonyl)-2-(thiazol-2-yl)-3,6-dihydropyrimidin-4-yl)methyl)-3,3-difluorohexahydropyrrolo[3,4-b]pyrrol-5(1H)-yl)-2,2-dimethyl-3-oxopropanoic acid], the EC50 (HBV; [2]) was 0.0393 µM and the CC50 at 6 days [1] was greater than 100 µM.

`CCOC(=O)C1=C(CN2CC(F)(F)[C@H]3[C@@H]2CCN3C[C@H]2C[C@H](C(=O)O)C2)NC(c2nccs2)=N[C@H]1c1cccc(F)c1C` (single isomer, unassigned) [Compound 143A] showed an EC50 (HBV; [2]) of 0.0011 µM and a CC50 at 6 days [1] of 19.2 µM.

`CCOC(=O)C1=C(CN2CC(F)(F)[C@@H]3[C@H]2CON3CCC(C)(C)C(=O)O)NC(c2nccs2)=N[C@H]1c1ccc(F)c(F)c1F` (single isomer, unassigned) [Compound 175, 4-((cis)-4-((5-(Ethoxycarbonyl)-2-(thiazol-2-yl)-6-(2,3,4-trifluorophenyl)-3,6-dihydropyrimidin-4-yl)methyl)-6,6-difluorohexahydro-1H-pyrrolo[3,2-c]isoxazol-1-yl)-2,2-dimethylbutanoic acid] gave an EC50 (HBV; [2]) of 0.008 µM and a CC50 at 6 days [1] greater than 50 µM.

In the case of `COC(=O)C1=C(CN2CC(F)(F)[C@@H]3C(=O)N(CC(C)(C)C(=O)O)C[C@@H]32)NC(c2nccs2)=N[C@H]1c1cccc(F)c1Cl` (single isomer, unassigned) [Compound 29, 3-((cis)-1-((6-(2-chloro-3-fluorophenyl)-5-(methoxycarbonyl)-2-(thiazol-2-yl)-3,6-dihydropyrimidin-4-yl)methyl)-3,3-difluoro-4-oxohexahydropyrrolo[3,4-b]pyrrol-5(1H)-yl)-2,2-dimethylpropanoic acid], the EC50 (HBV; [2]) is reported as 0.0135 µM and the CC50 at 6 days [1] is reported as greater than 100 µM.

`COC(=O)C1=C(CN2CC(F)(F)[C@H]3[C@@H]2CCN3CCC(C)(C)C(=O)O)NC(c2nccs2)=N[C@H]1c1ccc(F)c(F)c1Cl` (single isomer, unassigned) [Compound 126] gave an EC50 (HBV; [2]) of 0.0034 µM and a CC50 at 6 days [1] of 27.2 µM.

For `CCOC(=O)C1=C(CN2CC(F)(F)[C@H]3[C@@H]2CCN3C[C@H]2CC[C@H]2C(=O)O)NC(c2nccs2)=N[C@H]1c1cccc(F)c1C` (single isomer, unassigned) [Compound 130B], the EC50 (HBV; [2]) was less than 0.0005 µM and the CC50 at 6 days [1] was 18.2 µM.

Work on `CCOC(=O)C1=C(CN2CC[C@]3(F)C(=O)N(CCC(C)(C)C(=O)O)C[C@H]23)NC(c2nccs2)=N[C@H]1c1cccc(F)c1C` (single isomer, unassigned) [Compound 210B] yielded an EC50 (HBV; [2]) of 0.0977 µM and a CC50 at 6 days [1] of 48.7 µM.

`COC(=O)C1=C(CN2CC(F)(F)[C@@H]3[C@H]2CON3CCC(C)(C)C(=O)O)NC(c2nccs2)=N[C@H]1c1cccc(F)c1Cl` (single isomer, unassigned) [Compound 170, (cis)-4-(4-((6-(2-chloro-3-fluorophenyl)-5-(methoxycarbonyl)-2-(thiazol-2-yl)-3,6-dihydropyrimidin-4-yl)methyl)-6,6-difluorohexahydro-1H-pyrrolo[3,2-c]isoxazol-1-yl)-2,2-dimethylbutanoic acid] showed an EC50 (HBV; [2]) of 0.008 µM and a CC50 at 6 days [1] greater than 25 µM.

`CCOC(=O)C1=C(CN2CC(F)(F)[C@H]3[C@@H]2C(=O)N(CC(C)(C)C(=O)O)N3C)NC(c2nccs2)=N[C@H]1c1cccc(F)c1C` (single isomer, unassigned) [Compound 88] showed an EC50 (HBV; [2]) of 0.0015 µM and a CC50 at 6 days [1] of 60 µM.

For `CCOC(=O)C1=C(CN2CC(F)(F)C3CN(CC(C)(C)C(=O)O)CC32)NC(c2nccs2)=N[C@H]1c1cccc(F)c1C` (stereo in doubt) [Compound 12, (cis)-3-(1-(((S)-5-(ethoxycarbonyl)-6-(3-fluoro-2-methylphenyl)-2-(thiazol-2-yl)-3,6-dihydropyrimidin-4-yl)methyl)-3,3-difluorohexahydropyrrolo[3,4-b]pyrrol-5(1H)-yl)-2,2-dimethylpropanoic acid], the EC50 (HBV; [2]) was 0.0324 µM and the CC50 at 6 days [1] was 56.7 µM.

`CCOC(=O)C1=C(CN2CC[C@@]3(F)C(=O)N(CCC(C)(C)C(=O)O)C[C@@H]23)NC(c2nccs2)=N[C@H]1c1cccc(F)c1C` (single isomer, unassigned) [Compound 50A] showed an EC50 (HBV; [2]) of 0.0408 µM and a CC50 at 6 days [1] of 49.3 µM.

For `CCOC(=O)C1=C(CN2CC(F)(F)[C@@H]3[C@H]2CN(C(=O)C(F)F)N3CCC(C)(C)C(=O)O)NC(c2nccs2)=N[C@H]1c1cccc(F)c1C` (single isomer, unassigned) [Compound 75], the EC50 (HBV) was 0.04 µM and the CC50 at 6 days [1] was 22.6 µM.

With `CCOC(=O)C1=C(CN2C[C@H](F)[C@H]3[C@@H]2CON3CCC(C)(C)C(=O)O)NC(c2nccs2)=N[C@H]1c1cccc(F)c1C` (single isomer, unassigned) [Compound 177] the EC50 (HBV; [2]) was 0.015 µM and the CC50 at 6 days [1] was 24 µM.

With `[H][C@]1(N2CC[C@H]3[C@@H]2C(F)(F)CN3CC2=C(C(=O)OCC)[C@H](c3cccc(F)c3C)N=C(c3nccs3)N2)C[C@@]2(C[C@@H](C(=O)O)C2)C1` (single isomer, unassigned) [Compound 113A] the EC50 (HBV; [2]) was 0.005 µM and the CC50 at 6 days [1] was greater than 3 µM.

Work on `CCOC(=O)C1=C(CN2CC(F)(F)[C@@H]3CN(CC(C)(C)C(=O)O)C[C@@H]32)NC(c2nccs2)=N[C@@H]1c1ccc(F)nc1C` (single isomer, unassigned) [Compound 201, 3-((cis)-1-((5-(ethoxycarbonyl)-6-(6-fluoro-2-methylpyridin-3-yl)-2-(thiazol-2-yl)-3,6-dihydropyrimidin-4-yl)methyl)-3,3-difluorohexahydropyrrolo[3,4-b]pyrrol-5(1H)-yl)-2,2-dimethylpropanoic acid] yielded an EC50 (HBV; [2]) of 0.0726 µM and a CC50 at 6 days [1] greater than 100 µM.

`CCOC(=O)C1=C(CN2CC(F)(F)[C@@H]3[C@H]2CN(C)N3CCC(C)(C)C(=O)O)NC(c2nccs2)=N[C@H]1c1cccc(F)c1C` (relative stereo) [Compound 68A, 4-(4-(((S)-5-(ethoxycarbonyl)-6-(3-fluoro-2-methylphenyl)-2-(thiazol-2-yl)-3,6-dihydropyrimidin-4-yl)methyl)-6,6-difluoro-2-methylhexahydropyrrolo[3,2-c]pyrazol-1(2H)-yl)-2,2-dimethylbutanoic acid] gave an EC50 (HBV; [2]) of 0.0074 µM and a CC50 at 6 days [1] of 22.2 µM.
